From ChEMBL document CHEMBL1158422, “A library of novel allosteric inhibitors against fructose 1,6-bisphosphatase” (Bioorg Med Chem, 2009)
Where “and” joins values, the source holds several entries; their conditions need not be identical. Equal entries are not always repeated. Calls of active or inactive are those of the source. The calls are words filed in the database; no cut-off is given here.

Biological target: T1, Fructose-1,6-bisphosphatase 1 (Sus scrofa, UniProt P00636)
T1 sequence (P00636 whole entry): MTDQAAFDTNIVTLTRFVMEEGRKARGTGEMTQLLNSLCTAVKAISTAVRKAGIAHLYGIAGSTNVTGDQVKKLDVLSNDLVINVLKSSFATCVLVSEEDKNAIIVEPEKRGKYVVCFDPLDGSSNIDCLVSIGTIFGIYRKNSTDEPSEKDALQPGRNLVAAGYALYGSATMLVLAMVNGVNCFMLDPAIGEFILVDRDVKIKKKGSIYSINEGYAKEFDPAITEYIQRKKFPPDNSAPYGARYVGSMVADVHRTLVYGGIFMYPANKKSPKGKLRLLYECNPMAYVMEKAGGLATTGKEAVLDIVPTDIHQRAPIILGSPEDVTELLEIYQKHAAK
Assay: Inhibition of pig FBPase expressed in Escherichia coli EK1601 by spectrophotometry
Details: not given

With `O=[N+]([O-])c1ccc(Nc2nc(-c3ccccc3)cs2)cc1` the IC50 was “Not Active”.
`O=[N+]([O-])c1ccc(-c2csc(Nc3ccccc3)n2)cc1` was tested, and the IC50 was “Not Active”.

Same assay, conditions: read-out: IC50

In order of rising IC50:
1. Nc1nc(-c2ccc(O)cc2)cs1  1.1 µM
2. Nc1ncnc2c1ncn2[C@@H]1O[C@H](COP(=O)(O)O)[C@@H](O)[C@H]1O [ADENOSINE PHOSPHATE]  1.3 µM
3. Oc1cccc(Nc2nc(-c3ccc(O)cc3O)cs2)c1  6 µM
4. Oc1ccc(Nc2nc(-c3ccc(O)cc3O)cs2)cc1  11 µM
5. Oc1ccc(-c2csc(Nc3cccc(O)c3)n2)cc1  13 µM
6. Oc1ccc(-c2csc(Nc3ccccc3O)n2)cc1  15 µM
7. CCc1c(C)sc(NC(=S)NCc2ccccn2)c1C(=O)OC  20 µM
8. Oc1ccc(-c2csc(Nc3ccccc3O)n2)c(O)c1  20 µM
9. Oc1cccc(Nc2nc(-c3ccccc3)cs2)c1  35 µM
10. Oc1ccc(Nc2nc(-c3ccc(O)cc3)cs2)cc1  48 µM
11. O=C(O)c1cccc(Nc2nc(-c3ccc(O)cc3)cs2)c1  48 µM
12. O=[N+]([O-])c1cccc(Nc2nc(-c3ccc(O)cc3)cs2)c1  48 µM
13. NS(=O)(=O)c1cccc(Nc2nc(-c3ccc(O)cc3)cs2)c1  50 µM
14. NS(=O)(=O)c1ccc(Nc2nc(-c3ccc(O)cc3O)cs2)cc1  55 µM
15. Nc1nc(-c2ccc(O)cc2O)cs1  93 µM
16. NS(=O)(=O)c1cccc(Nc2nc(-c3ccccc3)cs2)c1  104 µM
17. Oc1ccccc1-c1csc(Nc2ccccc2)n1  119 µM
18. Oc1ccc(Nc2nc(-c3ccccc3)cs2)cc1  124 µM
19. NS(=O)(=O)c1ccc(Nc2nc(-c3ccccc3)cs2)cc1  145 µM
20. O=[N+]([O-])c1ccc(Nc2nc(-c3ccc(O)cc3)cs2)cc1  246 µM
21. Oc1ccccc1Nc1nc(-c2ccccc2)cs1  270 µM
22. Oc1ccc(-c2csc(Nc3ccccc3)n2)cc1  318 µM
23. Oc1ccc(-c2csc(Nc3ccccc3)n2)c(O)c1  343 µM
24. O=C(O)c1cccc(Nc2nc(-c3ccccc3)cs2)c1  571 µM
25. O=C(O)c1ccc(S(=O)(=O)c2ccc(C(=O)O)cc2)cc1  750 µM
26. Nc1nc(-c2ccccc2)cs1  1390 µM
27. c1ccc(Nc2nc(-c3ccccc3)cs2)cc1  2500 µM
28. Cc1cc(C)n(CC(O)COc2ccc3ccccc3c2)n1 (stereo not drawn)  3000 µM

With `NS(=O)(=O)c1ccc(Nc2nc(-c3ccc(O)cc3)cs2)cc1` the IC50 was 32 µM and 31.6 µM.

Biological target: T2, Fructose-1,6-bisphosphatase 1 (Sus scrofa) (UniProt P00636)
T2 sequence (whole entry): T1 sequence (P00636 whole entry)
Assay: Inhibition of pig FBPase expressed in Escherichia coli EK1601 at 100 uM by spectrophotometry
Details: not given

Molecule `O=[N+]([O-])c1ccc(-c2csc(Nc3ccc(O)cc3)n2)cc1` has an inhibition of 87%.

Biological target: T2, Fructose-1,6-bisphosphatase 1 (Sus scrofa)
Assay: Inhibition of pig FBPase expressed in Escherichia coli EK1601 up to 300 uM by spectrophotometry
Details: not given

In the case of `O=[N+]([O-])c1cccc(Nc2nc(-c3ccccc3)cs2)c1`, the inhibition is reported as “inactive”.
